Measured values as given in US11919965B2, “Methods of treating multiple myeloma with bispecific anti-BCMA x anti-CD3 antibodies” (Regeneron Pharmaceuticals, Inc., priority 2019, dated 2024).

Key:
[1] = test system: Jurkat/NFATLuc.3C7 reporter cells with Raji cells (BCMA positive); assay: Jurkat/NFATLuc reporter bioassay (T-cell activation); assay type: cell-based, human
Procedure: (§1) Activity of the anti-BCMA×anti-CD3 bispecific antibodies were assessed in a Jurkat/NFATLuc reporter bioassay utilizing several cell lines with varying levels of BCMA surface expression. The Jurkat cells were engineered to express an NFAT-luciferase reporter (Jurkat/NFATLuc.3C7), and 50,000 Jurkat reporter cells were combined with 50,000 BCMA positive (Daudi, MM1-S, NCI-H929, OPM-2, RPMI-8226, MOLP-8, or Raji) or BCMA negative (HEK293) cells in Thermo Nunclon delta 96 well white microwell plates (Thermo Scientific, Cat #136102) in 50 ul of assay media (RPMI media with 10% FBS and 1% P/S/G). Three-fold serial dilutions of the BCMA×CD3 bispecific antibodies (mAb25441D or mAb25442D), or a bivalent anti-BCMA antibody (mAb21581) were immediately added in 50 uL of assay buffer. The plates were gently agitated and incubated in a 37° C., 5% CO2 incubator for 4-6 hours. NFAT-Luciferase activity was determined using Promega One-Glo (Cat #E6130) and a Perkin Elmer Envision plate reader. RLU were plotted in GraphPad Prism using a four-parameter logistic equation over a 12-point response curve to calculate EC50 values. The no antibody treatment condition for each dose-response curve is also included in the analysis as a continuation of the three-fold serial dilution and is represented as the lowest dose. The signal to noise (S:N) is determined by taking the ratio of the highest RLU on the curve to the lowest.

[2] = test system: Jurkat/NFATLuc.3C7 reporter cells with RPMI-8226 cells (BCMA positive); assay: as above; assay type: cell-based, human
Procedure: as §1

monkey BCMA-MFC = assay: SPR (Biacore 4000) binding kinetics at 25° C.
Sequence of monkey BCMA-MFC (as listed by the source): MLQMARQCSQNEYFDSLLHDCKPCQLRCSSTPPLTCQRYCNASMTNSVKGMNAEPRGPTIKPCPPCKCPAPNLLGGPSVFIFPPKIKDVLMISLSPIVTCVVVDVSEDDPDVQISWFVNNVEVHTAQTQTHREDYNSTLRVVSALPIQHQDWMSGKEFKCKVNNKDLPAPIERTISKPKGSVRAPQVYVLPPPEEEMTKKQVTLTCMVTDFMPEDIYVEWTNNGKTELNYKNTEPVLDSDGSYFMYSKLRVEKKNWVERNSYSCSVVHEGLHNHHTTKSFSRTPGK
Procedure: (§2) The CM5 Biacore sensor surface was derivatized by amine coupling with a monoclonal mouse anti-human Fc antibody (GE, #BR-1008-39) to capture purified anti-BCMA mAbs and anti-BCMA×anti-CD3 bispecific mAbs. All Biacore binding studies were performed in a buffer composed of 0.01M HEPES pH 7.4, 0.15M NaCl, 3 mM EDTA, 0.05% v/v Surfactant P20 (HBS-ET running buffer). […] Antigen samples were then injected over the anti-BCMA and anti-BCMA×anti-CD3 bispecific mAbs captured surfaces at a flow rate of 30 μL/minute. Antibody-reagent association was monitored for 5 minutes while dissociation in HBS-ET running buffer was monitored for 10 minutes. All of the binding kinetics experiments were performed at 25° C. Kinetic association (ka) and dissociation (kd) rate constants were determined by fitting the real-time sensorgrams to a 1:1 binding model using Scrubber 2.0c curve fitting software. Binding dissociation equilibrium constants (KD) and dissociative half-lives (t1/2) were calculated from the kinetic rate constants as: […]

monkey BCMA-MMH = assay: SPR (Biacore 4000) binding kinetics at 25° C.
Sequence of monkey BCMA-MMH (as listed by the source): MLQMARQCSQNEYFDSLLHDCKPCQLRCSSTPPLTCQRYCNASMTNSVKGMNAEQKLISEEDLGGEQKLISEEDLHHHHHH
Procedure: as §2

[3] = test system: BCMA-expressing NCI-H929 multiple myeloma tumors; assay: Xenogenic tumor model, NCI-H929 + human PBMC s.c. in NSG mice, treatment from implantation (Example 10); assay type: in vivo, mouse; conditions: 4 mg/kg
Procedure: To determine the in vivo efficacy of BCMA×CD3 bispecific antibodies (Abs), a xenogenic tumor study was performed. Immunodeficient NOD.Cg-Prkdc^scidII2rgtm1Wjl/SzJ (NSG) mice were subcutaneously implanted with a mixture of 10×10^6 BCMA-expressing NCI-H929 multiple myeloma cells and 0.5×10^6 human peripheral blood mononuclear cells (PBMC) isolated from a normal donor. […] The mice were administered Abs twice per week for a total of three weeks, and tumor growth was assessed over 40 days. While BCMA^+ tumors grew similarly in the vehicle-, isotype control-, and CD3-binding control-treated mice, both BCMA×CD3 Abs that were tested prevented the growth of tumors in vivo.
Implantation and measurement of syngeneic tumors: NSG mice were subcutaneously implanted with a mixture of 10×10^6 BCMA-expressing NCI-H929 multiple myeloma cells and 0.5×10^6 PBMC derived from a normal donor. […] The mice were administered Abs twice per week for a total of three weeks. Tumor growth was measured with calipers twice per week for the duration of the experiment. Mice were sacrificed 40 days after tumor implantation.
Calculation of syngeneic tumor growth and inhibition: In order to determine tumor volume by external caliper, the greatest longitudinal diameter (length in mm) and the greatest transverse diameter (width in mm) were determined. Tumor volumes based on caliper measurements were calculated by the formula: Volume (mm^3)=(length× width^2)/2.

In the case of “REGN5458: anti-BCMA×anti-CD3 bispecific antibody: mAb21581 BCMA heavy chain, mAb7221G CD3 heavy chain and common light chain; SEQ ID NOs 126, 127, 129”, the “S:N (highest RLU to lowest)” value [1] is reported as 123, the “S:N (highest RLU to lowest)” value [2] is reported as 55 and the “ka” value (monkey BCMA-MFC) is reported as 528000 M⁻¹ s⁻¹. The “kd” value (monkey BCMA-MFC) was 8.8e-05 s⁻¹, the “ka” value (monkey BCMA-MMH) was 182000 M⁻¹ s⁻¹ and the “kd” value (monkey BCMA-MMH) was 0.00909 s⁻¹. The “Average Tumor Size (mm3) ± SEM on Day 4” value [3] was 39.5 ± 9.1 mm3, the “Average Tumor Size (mm3) ± SEM on Day 7” value [3] was 0 ± 0 mm3 and the “Average Tumor Size (mm3) ± SEM on Day 11” value [3] was 0 ± 0 mm3. For the same substance, the “Average Tumor Size (mm3) ± SEM on Day 14” value [3] was 0 ± 0 mm3, the “Average Tumor Size (mm3) ± SEM on Day 18” value [3] was 0 ± 0 mm3 and the “Average Tumor Size (mm3) ± SEM on Day 21” value [3] was 0 ± 0 mm3. For the same substance, the “Average Tumor Size (mm3) ± SEM on Day 28” value [3] was 0 ± 0 mm3 and the “Average Tumor Size (mm3) ± SEM on Day 40” value [3] was 0 ± 0 mm3.
In the case of “REGN5459: anti-BCMA×anti-CD3 bispecific antibody: mAb21581 BCMA heavy chain, mAb7221G20 CD3 heavy chain and common light chain; SEQ ID NOs 126, 128, 129”, the “S:N (highest RLU to lowest)” value [1] is reported as 78, the “S:N (highest RLU to lowest)” value [2] is reported as 42 and the “ka” value (monkey BCMA-MFC) is reported as 482000 M⁻¹ s⁻¹. For the same substance, the “kd” value (monkey BCMA-MFC) was 7.15e-05 s⁻¹, the “ka” value (monkey BCMA-MMH) was 223000 M⁻¹ s⁻¹ and the “kd” value (monkey BCMA-MMH) was 0.00864 s⁻¹. The “Average Tumor Size (mm3) ± SEM on Day 4” value [3] was 26.5 ± 6.2 mm3, the “Average Tumor Size (mm3) ± SEM on Day 7” value [3] was 0 ± 0 mm3 and the “Average Tumor Size (mm3) ± SEM on Day 11” value [3] was 0 ± 0 mm3. For the same substance, the “Average Tumor Size (mm3) ± SEM on Day 14” value [3] was 0 ± 0 mm3, the “Average Tumor Size (mm3) ± SEM on Day 18” value [3] was 0 ± 0 mm3 and the “Average Tumor Size (mm3) ± SEM on Day 21” value [3] was 0 ± 0 mm3. The “Average Tumor Size (mm3) ± SEM on Day 28” value [3] was 0 ± 0 mm3 and the “Average Tumor Size (mm3) ± SEM on Day 40” value [3] was 0 ± 0 mm3.
